Laboratory results: PubChem BioAssay (NCI)
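Assay format: 96-well plates, 48-hour exposure. At the TGI there is no net growth.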

How the values were obtained:
Assay in all cases: NCI-60 cell line screen, 48 h
K-562 leukemia = test system: K-562 leukemia
KM12 colon = test system: KM12 colon
RXF 393 renal = test system: RXF 393 renal
SK-MEL-28 melanoma = test system: SK-MEL-28 melanoma
SN12C renal = test system: SN12C renal
UACC-257 melanoma = test system: UACC-257 melanoma
COLO 205 colon = test system: COLO 205 colon
MDA-MB-231 breast = test system: MDA-MB-231 breast
MDA-MB-435 = test system: MDA-MB-435
SK-OV-3 ovarian = test system: SK-OV-3 ovarian

O=C1c2ccccc2C(=O)c2c(O)c(NCCNCCO)cc(O)c21
TGI (K-562 leukemia): 10.4 µM | TGI (KM12 colon): 15.7 µM | TGI (RXF 393 renal): 13.4 µM | TGI (SK-MEL-28 melanoma): 16.6 µM | TGI (SN12C renal): 14.9 µM | TGI (UACC-257 melanoma): 19.6 µM

Cc1nc(Nc2nc3ccccc3[nH]2)[nH]c(=O)c1CCO
TGI (COLO 205 colon): > 100 µM | TGI (K-562 leukemia): > 100 µM | TGI (KM12 colon): > 100 µM | TGI (MDA-MB-231 breast): > 100 µM | TGI (MDA-MB-435): > 100 µM | TGI (RXF 393 renal): > 84.3 µM | TGI (SK-MEL-28 melanoma): > 100 µM | TGI (SK-OV-3 ovarian): > 82.1 µM | TGI (SN12C renal): > 100 µM | TGI (UACC-257 melanoma): > 100 µM

S=C(Nc1cccc(C2(N3CCCCC3)CCCCC2)c1)Nc1cccc(C2(N3CCCCC3)CCCCC2)c1
TGI (COLO 205 colon): 37.6 µM | TGI (K-562 leukemia): 27.5 µM | TGI (KM12 colon): 33.2 µM | TGI (MDA-MB-231 breast): 32.5 µM | TGI (MDA-MB-435): 30.6 µM | TGI (RXF 393 renal): 29.7 µM | TGI (SK-MEL-28 melanoma): 35.3 µM | TGI (SK-OV-3 ovarian): > 100 µM | TGI (SN12C renal): > 100 µM | TGI (UACC-257 melanoma): 33.4 µM

Cn1nc(C(=O)N2CC(CCl)c3c2cc([N+](=O)[O-])c2ccccc32)cc1NC(=O)Nc1cc(C(=O)N2CC(CCl)c3c2cc([N+](=O)[O-])c2ccccc32)nn1C (stereo not drawn)
TGI (COLO 205 colon): > 100 µM | TGI (K-562 leukemia): > 100 µM | TGI (KM12 colon): > 100 µM | TGI (MDA-MB-231 breast): > 100 µM | TGI (MDA-MB-435): > 100 µM | TGI (SK-MEL-28 melanoma): > 100 µM | TGI (SK-OV-3 ovarian): > 100 µM | TGI (SN12C renal): > 100 µM | TGI (UACC-257 melanoma): > 100 µM

CC1=C(C(=O)NC(C)(C)C)CC(C(=O)NC(C)(C)C)C(C)N1 (stereo not drawn)
TGI (COLO 205 colon): > 100 µM | TGI (K-562 leukemia): > 100 µM | TGI (KM12 colon): > 100 µM | TGI (MDA-MB-231 breast): > 100 µM | TGI (MDA-MB-435): > 100 µM | TGI (RXF 393 renal): > 100 µM | TGI (SK-OV-3 ovarian): > 100 µM | TGI (SN12C renal): > 100 µM | TGI (UACC-257 melanoma): > 100 µM

Cc1cc(C(O)CNC(C)CCn2cnc3c2c(=O)n(C)c(=O)n3C)ccc1O (stereo not drawn)
TGI (COLO 205 colon): > 100 µM | TGI (K-562 leukemia): > 100 µM | TGI (KM12 colon): > 100 µM | TGI (MDA-MB-231 breast): > 100 µM | TGI (MDA-MB-435): > 100 µM | TGI (RXF 393 renal): > 100 µM | TGI (SK-MEL-28 melanoma): > 100 µM | TGI (SK-OV-3 ovarian): > 100 µM | TGI (SN12C renal): > 100 µM | TGI (UACC-257 melanoma): > 100 µM

Cc1[nH]c2ccccc2c1C1=CC(=O)N(c2ccccc2)C1=O
TGI (COLO 205 colon): > 100 µM | TGI (K-562 leukemia): 29.8 µM | TGI (MDA-MB-231 breast): > 100 µM | TGI (MDA-MB-435): > 100 µM | TGI (RXF 393 renal): 26.6 µM | TGI (SK-MEL-28 melanoma): 20.5 µM | TGI (SK-OV-3 ovarian): > 100 µM | TGI (SN12C renal): 86 µM | TGI (UACC-257 melanoma): 61.5 µM

Nc1cc(N)c(N=Nc2cccc3c(S(=O)(=O)O)cccc23)cc1N=Nc1cc([N+](=O)[O-])ccc1O
TGI (COLO 205 colon): > 100 µM | TGI (K-562 leukemia): > 100 µM | TGI (KM12 colon): > 100 µM | TGI (MDA-MB-231 breast): > 100 µM | TGI (MDA-MB-435): > 100 µM | TGI (RXF 393 renal): > 100 µM | TGI (SK-OV-3 ovarian): > 100 µM | TGI (SN12C renal): > 100 µM | TGI (UACC-257 melanoma): 74.5 µM

CCCc1cc(-c2ccc(-c3cc(CCC)c(C=O)[nH]3)s2)[nH]c1C=O
TGI (COLO 205 colon): > 100 µM | TGI (K-562 leukemia): > 100 µM | TGI (KM12 colon): > 100 µM | TGI (MDA-MB-231 breast): > 100 µM | TGI (MDA-MB-435): > 100 µM | TGI (RXF 393 renal): > 87.9 µM | TGI (SK-MEL-28 melanoma): > 100 µM | TGI (SK-OV-3 ovarian): > 100 µM | TGI (SN12C renal): > 100 µM | TGI (UACC-257 melanoma): > 100 µM

CN(C)Cc1[nH]c2ccccc2c1C(=O)c1ccccc1
TGI (COLO 205 colon): > 100 µM | TGI (K-562 leukemia): > 100 µM | TGI (KM12 colon): > 100 µM | TGI (SK-MEL-28 melanoma): > 100 µM | TGI (UACC-257 melanoma): > 100 µM

COc1ccccc1Cn1[nH]c(=O)c2cc([N+](=O)[O-])ccc21
TGI (COLO 205 colon): > 100 µM | TGI (K-562 leukemia): > 100 µM | TGI (KM12 colon): > 100 µM | TGI (MDA-MB-231 breast): > 100 µM | TGI (MDA-MB-435): > 100 µM | TGI (RXF 393 renal): 82.6 µM | TGI (SK-MEL-28 melanoma): > 100 µM | TGI (SN12C renal): > 100 µM | TGI (UACC-257 melanoma): > 100 µM

O=C1/C(=C/c2ccc(Cl)cc2)Sc2scc(-c3cccc([N+](=O)[O-])c3)[n+]21
TGI (COLO 205 colon): 4.48 µM | TGI (K-562 leukemia): 2.24 µM | TGI (KM12 colon): 13.1 µM | TGI (MDA-MB-231 breast): > 32.1 µM | TGI (MDA-MB-435): 13.2 µM | TGI (RXF 393 renal): 7.97 µM | TGI (SK-MEL-28 melanoma): 10.2 µM | TGI (SK-OV-3 ovarian): 23.6 µM | TGI (SN12C renal): 11.9 µM | TGI (UACC-257 melanoma): 10.9 µM

COc1cc2c(cc1OCCCCN1CCN(CCCCOc3cc4c(cc3OC)C(=O)N3CCC[C@H]3C=N4)CC1)N=C[C@@H]1CCCN1C2=O
TGI (COLO 205 colon): 0.0354 µM | TGI (K-562 leukemia): > 11.3 µM | TGI (KM12 colon): 0.204 µM | TGI (MDA-MB-231 breast): 0.182 µM | TGI (MDA-MB-435): 0.165 µM | TGI (RXF 393 renal): 0.507 µM | TGI (SK-OV-3 ovarian): > 100 µM | TGI (SN12C renal): 1.1 µM | TGI (UACC-257 melanoma): 0.676 µM

CSc1nc(C)c(CCCl)c(Cl)n1
TGI (COLO 205 colon): > 100 µM | TGI (K-562 leukemia): > 100 µM | TGI (MDA-MB-231 breast): > 100 µM | TGI (MDA-MB-435): > 100 µM | TGI (RXF 393 renal): > 100 µM | TGI (SK-MEL-28 melanoma): > 100 µM | TGI (SK-OV-3 ovarian): > 100 µM | TGI (SN12C renal): > 100 µM | TGI (UACC-257 melanoma): > 100 µM

COc1ccc(C2C(Cl)C(=O)N2NC(=O)c2ccccc2O)cc1OC (stereo not drawn)
TGI (K-562 leukemia): > 100 µM | TGI (KM12 colon): > 100 µM | TGI (RXF 393 renal): > 100 µM | TGI (SK-MEL-28 melanoma): > 100 µM | TGI (SK-OV-3 ovarian): > 100 µM | TGI (SN12C renal): > 100 µM | TGI (UACC-257 melanoma): > 100 µM

CC(=O)C1=NN(c2ccccc2)C2(S1)SC(c1ccccc1)(c1ccccc1)c1ccccc12 (stereo not drawn)
TGI (COLO 205 colon): > 100 µM | TGI (K-562 leukemia): > 100 µM | TGI (KM12 colon): > 100 µM | TGI (RXF 393 renal): 65.7 µM | TGI (SK-MEL-28 melanoma): > 100 µM | TGI (SK-OV-3 ovarian): > 100 µM | TGI (SN12C renal): > 100 µM | TGI (UACC-257 melanoma): > 100 µM

O=C(O)CN=c1c2ccccc2n(O)c2ccccc12
TGI (COLO 205 colon): > 100 µM | TGI (K-562 leukemia): 26.9 µM | TGI (KM12 colon): > 100 µM | TGI (SK-MEL-28 melanoma): > 100 µM | TGI (SK-OV-3 ovarian): > 100 µM | TGI (SN12C renal): > 100 µM | TGI (UACC-257 melanoma): > 100 µM

CC(=O)C1C(=O)C(=O)N(c2ccc(Br)cc2)C1=O (stereo not drawn)
TGI (COLO 205 colon): > 100 µM | TGI (KM12 colon): > 100 µM | TGI (MDA-MB-231 breast): > 100 µM | TGI (MDA-MB-435): > 100 µM | TGI (RXF 393 renal): > 100 µM | TGI (SK-MEL-28 melanoma): > 100 µM | TGI (SK-OV-3 ovarian): > 100 µM | TGI (SN12C renal): > 100 µM | TGI (UACC-257 melanoma): > 100 µM

O=C(Nc1ccc(S(=O)(=O)Nc2ncccn2)cc1)c1c2ccccc2nc2ccccc12
TGI (COLO 205 colon): > 100 µM | TGI (K-562 leukemia): > 100 µM | TGI (KM12 colon): > 100 µM | TGI (MDA-MB-231 breast): > 100 µM | TGI (MDA-MB-435): > 100 µM | TGI (SK-MEL-28 melanoma): > 100 µM | TGI (SK-OV-3 ovarian): > 100 µM | TGI (SN12C renal): > 100 µM | TGI (UACC-257 melanoma): > 100 µM

C#CC(O)Cc1ccc(OC)c2occc12 (stereo not drawn)
TGI (COLO 205 colon): > 100 µM | TGI (K-562 leukemia): > 100 µM | TGI (KM12 colon): > 100 µM | TGI (MDA-MB-231 breast): > 100 µM | TGI (MDA-MB-435): > 100 µM | TGI (RXF 393 renal): > 100 µM | TGI (SK-OV-3 ovarian): > 100 µM | TGI (SN12C renal): > 100 µM | TGI (UACC-257 melanoma): > 100 µM

Oc1ccccc1-n1nc2ccc3nonc3c2n1
TGI (COLO 205 colon): > 100 µM | TGI (K-562 leukemia): > 100 µM | TGI (KM12 colon): > 100 µM | TGI (MDA-MB-231 breast): > 100 µM | TGI (MDA-MB-435): > 100 µM | TGI (SK-MEL-28 melanoma): > 100 µM | TGI (SK-OV-3 ovarian): > 100 µM | TGI (SN12C renal): > 100 µM | TGI (UACC-257 melanoma): > 100 µM

CC(=O)O/N=C/c1cc2c(cc1Br)OCO2
TGI (COLO 205 colon): > 349 µM | TGI (K-562 leukemia): > 349 µM | TGI (KM12 colon): > 349 µM | TGI (RXF 393 renal): > 349 µM | TGI (SK-MEL-28 melanoma): > 349 µM | TGI (SK-OV-3 ovarian): > 349 µM | TGI (SN12C renal): > 349 µM | TGI (UACC-257 melanoma): > 349 µM

Cc1ccc(F)c2c(=O)cc(-c3ccccc3)[nH]c12
TGI (COLO 205 colon): > 100 µM | TGI (K-562 leukemia): > 100 µM | TGI (KM12 colon): > 100 µM | TGI (RXF 393 renal): > 100 µM | TGI (SK-MEL-28 melanoma): > 100 µM | TGI (SK-OV-3 ovarian): > 100 µM | TGI (SN12C renal): > 100 µM | TGI (UACC-257 melanoma): > 100 µM
